This note sets out measurements from patent publication US20090156575A1, “NOVEL DIAZASPIROALKANES AND THEIR USE FOR TREATMENT OF CCR8 MEDIATED DISEASES” (priority 2005, published 2009).

In general, IC50 refers to the concentration at which inhibition is half-maximal.

Each structure is given as a SMILES string. Structures can show the parent of a compound that is named as a salt. Where two headings read alike, the source gives them in different places.

This assay addresses T1, human recombinant chemokine CCR8 receptor (Homo sapiens, UniProt P51685).
T1 construct: purchased Euroscreen ES-136-M; host or cells: CHO-K1 cells (transfected), membrane preparation
Kind of assay: CCL1 SPA binding assay. The settings on record: membranes from CHO-K1 cells transfected with human CCR8, 125I CCL1 displacement, SPA beads. As for the experimental part:
Membranes from CHO-K1 cells transfected with human recombinant chemokine CCR8 receptor (ES-136-M) were purchased from Euroscreen. Membrane preparations are stored at −70 C in 7.5 mM Tris-Cl pH 7.5, 12.5 mM MgCl2, 0.3 mM EDTA, 1 mM EGTA, 250 mM sucrose until used.
The CCR8 membranes (50.6 mg/ml) were preincubated with Wheat Germ Agglutinin SPA beads (4.05 mg/ml) in assay buffer (50 mM HEPES, 1 mM CaCl2×2H2O, 5 mM MgCl2×6H2O, 75 mM NaCl, 0.1% BSA) at pH=7.4 for 2 hours on ice. A […] dose-response curve (final concentrations 50 μM, 16.7 μM, 5.6 μM, 1.9 μM, 0.62 μM, 0.21 μM, 0.069 μM, 0.023 μM) was prepared by diluting compounds by serial dilution 1:3 in DMSO. In the screening plate (Polystyrene NBS plates, Costar Corning 3604) 1 μl from the DMSO solutions of compounds was transferred into each well. 1 μl of DMSO was added to the blank control wells and 1 μl unlabeled CCL1 (300 nM) was added to background control wells. 50 μl of the SPA bead-membrane mixture was added into each well. Finally, 50 μl ([…]) ^125I CCL1 (2000 Ci/mM) was added to each well. Plates were then incubated at RT with shaking (700 rpm) for 90 minutes followed by 30 minutes at RT without shaking. The plate was read in a Wallac MicroBeta counter for 2 minutes/well.

T1 sequence (P51685 whole entry): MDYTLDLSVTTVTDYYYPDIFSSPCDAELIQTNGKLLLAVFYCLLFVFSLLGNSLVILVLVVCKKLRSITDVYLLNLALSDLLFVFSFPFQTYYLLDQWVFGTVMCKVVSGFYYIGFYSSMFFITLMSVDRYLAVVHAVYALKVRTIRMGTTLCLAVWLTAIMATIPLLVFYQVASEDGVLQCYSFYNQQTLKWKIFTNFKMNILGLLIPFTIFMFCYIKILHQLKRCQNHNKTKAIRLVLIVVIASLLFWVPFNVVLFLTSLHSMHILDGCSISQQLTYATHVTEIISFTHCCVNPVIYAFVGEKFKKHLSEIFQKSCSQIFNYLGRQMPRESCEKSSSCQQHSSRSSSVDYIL

`CC1(C)Cc2c(CN3CCC4(CC3)CCN(C(=O)c3ccncc3CC(N)=O)CC4)cccc2O1` [Example 159, 2-[4-({9-[(2,2-dimethyl-2,3-dihydro-1-benzofuran-4-yl)methyl]-3,9-diazaspiro[5.5]undec-3-yl}carbonyl)pyridin-3-yl]acetamide]: where the note is “read-out: IC50”, the IC50 is 87 nM.

As for `CC1(C)Cc2cccc(CN3CCC4(CC3)CCN(C(=O)c3ccc5cc[nH]c5c3)CC4)c2O1` [Example 68, 3-[(2,2-dimethyl-2,3-dihydro-1-benzofuran-7-yl)methyl]-9-(1H-indol-6-ylcarbonyl)-3,9-diazaspiro[5.5]undecane Acetate], the IC50 (read-out: IC50) came to 8 nM.

Take `CC1(C)Cc2cccc(CN3CCC4(CC3)CCN(C(=O)c3cccc5c3NC(=O)C5=O)CC4)c2O1` [Example 63, 7-({9-[(2,2-dimethyl-2,3-dihydro-1-benzofuran-7-yl)methyl]-3,9-diazaspiro[5.5]undec-3-yl}carbonyl)-1H-indole-2,3-dione Trifluoroacetate]: the IC50 (read-out: IC50) turned out to be 143 nM.

In the case of `CC1(C)Cc2cccc(CN3CCC4(CC3)CCN(C(=O)c3ccno3)CC4)c2O1` [Example 31, 3-[(2,2-dimethyl-2,3-dihydro-1-benzofuran-7-yl)methyl]-9-(isoxazol-5-ylcarbonyl)-3,9-diazaspiro[5.5]undecane Trifluoroacetate], under “read-out: IC50”, the 50% inhibitory concentration (IC50) was 10 nM.

Regarding `CC1(C)C=Cc2cccc(CN3CCC4(CC3)CN(C(=O)c3ccncc3)C4)c2O1` [Example 139, 7-[(2,2-dimethyl-2H-chromen-8-yl)methyl]-2-isonicotinoyl-2,7-diazaspiro[3.5]nonane], the IC50 (read-out: IC50) was found to be 70 nM.

For `CC1(C)Cc2cccc(CN3CCC4(CC3)CCN(C(=O)c3ccncc3)CC4)c2O1` [Example 1, 3-[(2,2-dimethyl-2,3-dihydro-1-benzofuran-7-yl)methyl]-9-isonicotinoyl-3,9-diazaspiro[5.5]undecane Trifluoroacetate], the half-maximal inhibitory concentration (IC50) (read-out: IC50) is 12 nM.

Turning to `CC1(C)Oc2cccc(CN3CCC4(CC3)CCN(C(=O)c3ccc(N)[nH]c3=O)CC4)c2O1` [Example 133, 6-amino-3-({9-[(2,2-dimethyl-1,3-benzodioxol-4-yl)methyl]-3,9-diazaspiro[5.5]undec-3-yl}carbonyl)pyridin-2(1H)-one], for the setting “read-out: IC50”, the IC50 is 84 nM.

On to `CC1(C)Cc2c(CN3CCC4(CC3)CN(C(=O)c3ccnc(N)n3)C4)cccc2O1` [Example 157, 4-({7-[(2,2-dimethyl-2,3-dihydro-1-benzofuran-4-yl)methyl]-2,7-diazaspiro[3.5]non-2-yl}carbonyl)pyrimidin-2-amine], for which, where the note is “read-out: IC50”, the IC50 came out at 50 nM.

Take `CC1(C)COc2cccc(CN3CCC4(CC3)CCN(C(=O)c3ccncc3CC(N)=O)CC4)c2O1` [Example 143, 2-[4-({9-[(3,3-dimethyl-2,3-dihydro-1,4-benzodioxin-5-yl)methyl]-3,9-diazaspiro[5.5]undec-3-yl}carbonyl)pyridin-3-yl]acetamide Ditrifluoroacetate]: for the setting “read-out: IC50”, the IC50 is 32 nM.

`CC1(C)Cc2cccc(CN3CCC4(CC3)CCN(C(=O)c3ccccc3NC(=O)C3CCCO3)CC4)c2O1` (stereo not shown) [Example 49, N-[2-({9-[(2,2-dimethyl-2,3-dihydro-1-benzofuran-7-yl)methyl]-3,9-diazaspiro[5.5]undec-3-yl}carbonyl)phenyl]tetrahydrofuran-2-carboxamide]: for the setting “read-out: IC50”, the IC50 was found to be 38 nM.

As to `COC(=O)Cc1ccccc1C(=O)N1CCC2(CCN(Cc3cccc4c3OC(C)(C)C4)CC2)CC1` [Example 5, Methyl [2-({9-[(2,2-dimethyl-2,3-dihydro-1-benzofuran-7-yl)methyl]-3,9-diazaspiro[5.5]undec-3-yl}carbonyl)phenyl]acetate], the concentration for half-maximal inhibition (IC50) (read-out: IC50) stood at 9 nM.

Take `CC1(C)Cc2c(CN3CCC4(CC3)CCN(C(=O)c3ccnc(N)n3)CC4)cccc2O1` [Example 124, 4-({9-[(2,2-dimethyl-2,3-dihydro-1-benzofuran-4-yl)methyl]-3,9-diazaspiro[5.5]undec-3-yl}carbonyl)pyrimidin-2-amine]: for the setting “read-out: IC50”, the IC50 is 12 nM.

For the molecule `CC1(C)COc2c(CN3CCC4(CC3)CCN(C(=O)c3ccncc3)CC4)cccc2O1` [Example 110, 3-[(2,2-dimethyl-2,3-dihydro-1,4-benzodioxin-5-yl)methyl]-9-isonicotinoyl-3,9-diazaspiro[5.5]undecane Trifluoroacetate], the IC50 (read-out: IC50) was 53 nM.

In the case of `CC1(C)Cc2cccc(CN3CCC4(CC3)CCN(C(=O)c3ccccc3CC(=O)N3CCC[C@@H]3C(N)=O)CC4)c2O1` [Example 18, 1-{[2-({9-[(2,2-dimethyl-2,3-dihydro-1-benzofuran-7-yl)methyl]-3,9-diazaspiro[5.5]undec-3-yl}carbonyl)phenyl]acetyl}-D-prolinamide], the IC50 (read-out: IC50) was 57 nM.

Consider `CC1(C)COc2c(CN3CCC4(CC3)CCN(C(=O)c3ccc(N)cn3)CC4)cccc2O1` [Example 173, 6-({9-[(2,2-dimethyl-2,3-dihydro-1,4-benzodioxin-5-yl)methyl]-3,9-diazaspiro[5.5]undec-3-yl}carbonyl)pyridin-3-amine Trifluoroacetate], for which the IC50 (read-out: IC50) turned out to be 21 nM.

With `CC1(C)Oc2cccc(CN3CCC4(CC3)CCN(C(=O)c3ncccc3N)CC4)c2O1` [Example 92, 2-({9-[(2,2-dimethyl-1,3-benzodioxol-4-yl)methyl]-3,9-diazaspiro[5.5]undec-3-yl}carbonyl)pyridin-3-amine], the 50% inhibitory concentration (IC50) (read-out: IC50) is 23 nM.

For the molecule `COC(=O)Cc1ccccc1C(=O)N1CCC2(CCN(Cc3cccc4c3OC(C)(C)C4)CC2)CC1` [Example 181, Methyl [2-({9-[(2,2-dimethyl-2,3-dihydro-1-benzofuran-7-yl)methyl]-3,9-diazaspiro[5.5]undec-3-yl}carbonyl)phenyl]acetate], the IC50 (read-out: IC50) was found to be 72 nM.

Turning to `CC1(C)Cc2c(CN3CCC4(CC3)CCN(C(=O)c3ccc(N)cn3)CC4)cccc2O1` [Example 86, 6-({9-[(2,2-dimethyl-2,3-dihydro-1-benzofuran-4-yl)methyl]-3,9-diazaspiro[5.5]undec-3-yl}carbonyl)pyridin-3-amine Trifluoroacetate], the IC50 (IC50 (nM)) turned out to be 8 nM.

In the case of `CC1(C)Cc2cccc(CN3CCC4(CC3)CCN(C(=O)CCc3nc(-c5ccccn5)no3)CC4)c2O1` [Example 111, 3-[(2,2-dimethyl-2,3-dihydro-1-benzofuran-7-yl)methyl]-9-[3-(3-pyridin-2-yl-1,2,4-oxadiazol-5-yl)propanoyl]-3,9-diazaspiro[5.5]undecane], the IC50 (read-out: IC50) amounted to 104 nM.
